In brackets after ≈: the same amount, converted by molar mass. Where two headings read alike, the source gives them in different places.

Holding throughout (experiment): In vitro antibacterial activity, broth microdilution MIC90
What all share (assay type): cell-based

For experiment [1], the system named is Staphylococcus epidermidis. The procedure, abridged:
(§1)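 Broth microdilution followed CLSI M7-A5. Final test concentrations ranged from 0.063 to 128 μg/mL, with 2.5% (V/V) DMSO as excipient and linezolid as control.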

The test system of experiment [2] is Linezolid and Vancomycin Resistant Enterococcus faecium (strain 10). The procedure, abridged:
as §1

In experiment [3] the test system is Moraxella catarrhalis. Put shortly:
as §1

Experiment [4] deals with Methicillin Resistant Staphylococcus aureus. The procedure, abridged: as §1
For experiment [5], the system named is Linezolid and Vancomycin Resistant Enterococcus faecium (strain 11). Put shortly: as §1
The test system of experiment [6] is Enterococcus faecalis. The procedure, abridged: as §1
The test system of experiment [7] is Enterococcus faecium. The procedure, abridged:
as §1

Experiment [8] deals with Vancomycin Resistant Enterococcus faecium. The procedure, abridged:
as §1

Experiment [9] relates to Methicillin Resistant Staphylococcus epidermidis. The procedure, abridged:
as §1

Experiment [10] relates to Linezolid and Vancomycin Resistant Enterococcus faecalis. Put shortly: as §1
Experiment [11] concerns Staphylococcus aureus. Put shortly: as §1
The subject of experiment [12] is Vancomycin Resistant Enterococcus faecalis. The procedure, abridged: as §1
Setting [13] is: Staphylococcus epidermidis, strain 3, S. epidermidis, read-out: MIC90.
Where [14] appears, read: Enterococcus faecium, strain 10, E. faecium VanA LR, read-out: MIC90.
[15] abbreviates: Moraxella catarrhalis, strain 12, M. catarrhalis, read-out: MIC90.
The mark [16] stands for this setting: Staphylococcus aureus, strain 2, S. aureus MR, read-out: MIC90.
The mark [17] stands for this setting: Enterococcus faecium, strain 11, E. faecium VanA LR, read-out: MIC90.
Where [18] appears, read: Enterococcus faecalis, strain 5, E. faecalis, read-out: MIC90.
[19] abbreviates: Enterococcus faecium, strain 8, E. faecium, read-out: MIC90.
Setting [20] is: Enterococcus faecium, strain 9, E. faecium VanA, read-out: MIC90.
Where [21] appears, read: Staphylococcus epidermidis, strain 4, S. epidermidis MR, read-out: MIC90.
Setting [22] is: Enterococcus faecalis, strain 7, E. faecalis VanA LR, read-out: MIC90.
[23] abbreviates: Staphylococcus aureus, strain 1, S. aureus, read-out: MIC90.
Where [24] appears, read: Enterococcus faecalis, strain 6, E. faecalis VanA, read-out: MIC90.

On to `CC(=O)NC[C@H]1CN(c2ccc(-c3ccc(N4C=NN(C(=O)COC(=O)CCC(=O)O)CC4)nc3)c(F)c2)C(=O)O1` [Compound 13], for which the MIC90 in experiment [1] (setting [13]) came out at 1 µg/mL (≈ 1.75 µM); in experiment [2] (setting [14]) it was 2 µg/mL (≈ 3.51 µM); in experiment [3] (setting [15]), 2 µg/mL (≈ 3.51 µM); in [4] (setting [16]), 2 µg/mL (≈ 3.51 µM); in experiment [5] (setting [17]), 2 µg/mL (≈ 3.51 µM); in [6] (setting [18]), 1 µg/mL (≈ 1.75 µM). In addition, the MIC90 turned out to be 2 µg/mL (≈ 3.51 µM) in [7] (setting [19]); 1 µg/mL (≈ 1.75 µM) in [8] (setting [20]); 2 µg/mL (≈ 3.51 µM) in experiment [9] (setting [21]); 2 µg/mL (≈ 3.51 µM) in experiment [10] (setting [22]); 1 µg/mL (≈ 1.75 µM) in [11] (setting [23]); 1 µg/mL (≈ 1.75 µM) in experiment [12] (setting [24]).
As for `NCC(=O)N1CCN(c2ccc(-c3ccc(N4C[C@H](CNc5ccon5)OC4=O)cc3F)cn2)C=N1` [Compound 42], the MIC90 in experiment [1] (strain 3, S. epidermidis) came to 0.5 µg/mL (≈ 1.01 µM); in experiment [2] (strain 10, E. faecium VanA LR) it was 4 µg/mL (≈ 8.09 µM); in [3] (strain 12, M. catarrhalis), 2 µg/mL (≈ 4.04 µM); in experiment [4] (strain 2, S. aureus MR), 0.5 µg/mL (≈ 1.01 µM); in experiment [5] (strain 11, E. faecium VanA LR) it was 4 µg/mL (≈ 8.09 µM); in [6] (strain 5, E. faecalis), 0.5 µg/mL (≈ 1.01 µM). Moreover, the MIC90 in [7] (strain 8, E. faecium) came out at 0.125 µg/mL (≈ 0.253 µM); in [8] (strain 9, E. faecium VanA), 0.5 µg/mL (≈ 1.01 µM); in [9] (strain 4, S. epidermidis MR), 2 µg/mL (≈ 4.04 µM); in experiment [10] (strain 7, E. faecalis VanA LR) it was 2 µg/mL (≈ 4.04 µM); in [11] (strain 1, S. aureus), 0.25 µg/mL (≈ 0.506 µM); in [12] (strain 6, E. faecalis VanA), 1 µg/mL (≈ 2.02 µM).
As for `O=C1O[C@@H](CNc2ccon2)CN1c1ccc(-c2ccc(N3C=NOCC3)nc2)c(F)c1` [Compound 61], the MIC90 stood at 0.25 µg/mL (≈ 0.57 µM) in experiment [1] (strain 3, S. epidermidis); 2 µg/mL (≈ 4.56 µM) in experiment [2] (strain 10, E. faecium VanA LR); 2 µg/mL (≈ 4.56 µM) in experiment [3] (strain 12, M. catarrhalis); 0.25 µg/mL (≈ 0.57 µM) in experiment [4] (strain 2, S. aureus MR); 2 µg/mL (≈ 4.56 µM) in [5] (strain 11, E. faecium VanA LR); 0.5 µg/mL (≈ 1.14 µM) in experiment [6] (strain 5, E. faecalis). Moreover, the MIC90 came to 0.25 µg/mL (≈ 0.57 µM) in experiment [7] (strain 8, E. faecium); 0.5 µg/mL (≈ 1.14 µM) in experiment [8] (strain 9, E. faecium VanA); 0.5 µg/mL (≈ 1.14 µM) in experiment [9] (strain 4, S. epidermidis MR); 2 µg/mL (≈ 4.56 µM) in [10] (strain 7, E. faecalis VanA LR); 0.063 µg/mL (≈ 0.144 µM) in experiment [11] (strain 1, S. aureus); 0.5 µg/mL (≈ 1.14 µM) in [12] (strain 6, E. faecalis VanA).
As to `O=C(C(O)CO)N1CCN(c2ccc(-c3ccc(N4C[C@H](Cn5ccnn5)OC4=O)cc3F)cn2)C=N1` (stereo partly drawn) [Compound 37], the MIC90 in experiment [1] (Staphylococcus epidermidis) worked out at 1 µg/mL (≈ 1.96 µM); in [2] (Enterococcus faecium), 8 µg/mL (≈ 15.7 µM); in experiment [3] (Moraxella catarrhalis), 8 µg/mL (≈ 15.7 µM); in experiment [4] (Staphylococcus aureus), 1 µg/mL (≈ 1.96 µM); in [5] (Enterococcus faecium), 8 µg/mL (≈ 15.7 µM); in experiment [6] (Enterococcus faecalis), 1 µg/mL (≈ 1.96 µM). For the same compound, the MIC90 in experiment [7] (Enterococcus faecium) amounted to 1 µg/mL (≈ 1.96 µM); in [8] (Enterococcus faecium), 1 µg/mL (≈ 1.96 µM); in experiment [9] (Staphylococcus epidermidis), 2 µg/mL (≈ 3.92 µM); in [10] (Enterococcus faecalis), 8 µg/mL (≈ 15.7 µM); in [11] (Staphylococcus aureus), 0.5 µg/mL (≈ 0.979 µM); in [12] (Enterococcus faecalis), 1 µg/mL (≈ 1.96 µM).
In the case of `CC(=O)NC[C@H]1CN(c2ccc(N3CCOCC3)c(F)c2)C(=O)O1` [LZD, Linezolid, reference compound], the MIC90 came to 1 µg/mL (≈ 2.96 µM) in [1] (setting [13]); 32 µg/mL (≈ 94.9 µM) in experiment [2] (setting [14]); 8 µg/mL (≈ 23.7 µM) in experiment [3] (setting [15]); 2 µg/mL (≈ 5.93 µM) in experiment [4] (setting [16]); 64 µg/mL (≈ 190 µM) in [5] (setting [17]); 2 µg/mL (≈ 5.93 µM) in [6] (setting [18]). Besides, the MIC90 in [7] (setting [19]) was 1 µg/mL (≈ 2.96 µM); in experiment [8] (setting [20]) it was 2 µg/mL (≈ 5.93 µM); in experiment [9] (setting [21]), 2 µg/mL (≈ 5.93 µM); in experiment [10] (setting [22]) it was 32 µg/mL (≈ 94.9 µM); in experiment [11] (setting [23]), 1 µg/mL (≈ 2.96 µM); in experiment [12] (setting [24]), 2 µg/mL (≈ 5.93 µM).
Take `O=C1O[C@@H](CO)CN1c1ccc(-c2ccc(N3C=NOCC3)nc2)c(F)c1` [Compound 58]: the MIC90 in experiment [1] (setting [13]) is 0.5 µg/mL (≈ 1.34 µM); in [2] (setting [14]) it was 4 µg/mL (≈ 10.7 µM); in experiment [3] (setting [15]) it was 8 µg/mL (≈ 21.5 µM); in experiment [4] (setting [16]), 1 µg/mL (≈ 2.69 µM); in [5] (setting [17]), 8 µg/mL (≈ 21.5 µM); in experiment [6] (setting [18]), 1 µg/mL (≈ 2.69 µM). The MIC90 in experiment [7] (setting [19]) was determined as 0.5 µg/mL (≈ 1.34 µM); in experiment [8] (setting [20]) it was 1 µg/mL (≈ 2.69 µM); in [9] (setting [21]) it was 1 µg/mL (≈ 2.69 µM); in experiment [10] (setting [22]) it was 8 µg/mL (≈ 21.5 µM); in experiment [11] (setting [23]) it was 0.5 µg/mL (≈ 1.34 µM); in experiment [12] (setting [24]), 0.5 µg/mL (≈ 1.34 µM).
As to `CNC(=O)N1CCN(c2ccc(-c3ccc(N4C[C@H](CNC(=O)OC)OC4=O)cc3F)cn2)C=N1` [Compound 27], the MIC90 in experiment [1] (Staphylococcus epidermidis) turned out to be 1 µg/mL (≈ 2.06 µM); in experiment [2] (Enterococcus faecium), 2 µg/mL (≈ 4.12 µM); in experiment [3] (Moraxella catarrhalis) it was 4 µg/mL (≈ 8.24 µM); in experiment [4] (Staphylococcus aureus), 2 µg/mL (≈ 4.12 µM); in [5] (Enterococcus faecium) it was 2 µg/mL (≈ 4.12 µM); in [6] (Enterococcus faecalis), 0.5 µg/mL (≈ 1.03 µM). The MIC90 in [7] (Enterococcus faecium) stood at 0.25 µg/mL (≈ 0.515 µM); in experiment [8] (Enterococcus faecium), 0.5 µg/mL (≈ 1.03 µM); in experiment [9] (Staphylococcus epidermidis), 2 µg/mL (≈ 4.12 µM); in experiment [10] (Enterococcus faecalis), 4 µg/mL (≈ 8.24 µM); in [11] (Staphylococcus aureus) it was 0.5 µg/mL (≈ 1.03 µM); in experiment [12] (Enterococcus faecalis), 0.5 µg/mL (≈ 1.03 µM).

The values above are taken from patent US8846669B2, “Oxazolidinone derivative and medical composition containing same” (Legochem Biosciences, Inc., priority 2011, dated 2014).
